For experiment [1], the system named is HL-60. Nature of the experiment: Cytotoxicity against human HL60 cells after 72 hrs by MTT assay. Type of experiment: functional, cell-based. The note with it: HL-60, 72 h. On the technique in general: Formazan colour is commonly taken as a measure of viable cells.
Experiment [2] is described as follows: Antioxidant activity assessed as DPPH radical scavenging activity after 30 mins in absence of light. Type of experiment: functional.
The subject of experiment [3] is A549. The experiment can be described thus: Cytotoxicity against human A549 cells after 72 hrs by MTT assay. It is filed as functional, cell-based. The settings on record: A549, 72 h.
In experiment [4] the test system is HeLa. Nature of the experiment: Cytotoxicity against human HeLa cells after 72 hrs by MTT assay. It is filed as functional, cell-based.
Experiment [5] relates to MRC5. The experiment can be described thus: Cytotoxicity against human MRC5 cells after 72 hrs by MTT assay. It is filed as cell-based. The settings on record: MRC5, 72 h.
Experiment [6] deals with EA.hy 926. Nature of the experiment: Antiangiogenic activity against human EAhy926 cells assessed as inhibition of capillary-like tube formation at 50 uM measured after 20 hrs by inverted phase contrast microscopic analysis. It is filed as functional, cell-based.
Experiment [7] deals with HL-60. The experiment can be described thus: Induction of cell death in human HL60 cells assessed as decrease in percentage of cells in subG1 phase at 2 times IC50 pretreated for 72 hrs followed by caspase-8 inhibitor Z-IETD-FMK addition measured after 24 hrs by propidium iodide-staining based FACS analysis. Type of experiment: functional.
Experiment [8] relates to HL-60. Nature of the experiment: Induction of apoptosis in human HL60 cells assessed as secondary necrosis at 2 times IC50 measured after 24 hrs by acridine orange/ethidium bromide staining-based fluorescence microscopic method. It is filed as functional, cell-based.
Experiment [9] has as its system HL-60. Nature of the experiment: Downregulation of VEGFA in human HL60 cells assessed as decrease in mRNA expression levels at 6 uM after 24 hrs by RT-PCR analysis. It is filed as functional, cell-based.
In experiment [10] the test system is HL-60. The experiment can be described thus: Downregulation of MMP9 in human HL60 cells assessed as decrease in mRNA expression levels at 6.5 uM after 24 hrs by RT-PCR analysis. It is filed as functional, cell-based.
Experiment [11] relates to HL-60. The experiment can be described thus: Induction of apoptosis in human HL60 cells assessed as chromatin condensation at 2 times IC50 measured after 24 hrs by acridine orange/ethidium bromide staining-based fluorescence microscopic method. It is filed as functional, cell-based.
For experiment [12], the system named is HL-60. Nature of the experiment: Induction of apoptosis in human HL60 cells assessed as nuclear fragmentation at 2 times IC50 measured after 24 hrs by acridine orange/ethidium bromide staining-based fluorescence microscopic method. It is filed as functional, cell-based.
The test system of experiment [13] is HL-60. Nature of the experiment: Induction of cell death in human HL60 cells assessed as decrease in percentage of cells in subG1 phase at 2 times IC50 pretreated for 72 hrs followed by caspase-9 inhibitor Z-LEHD-FMK addition measured after 24 hrs by propidium iodide-staining based FACS analysis. Type of experiment: functional.
Experiment [14] concerns HL-60. Nature of the experiment: Downregulation of MMP2 in human HL60 cells assessed as decrease in mRNA expression levels at 6.5 uM after 24 hrs by RT-PCR analysis. It is filed as functional, cell-based.
Experiment [15] has as its system HL-60. The experiment can be described thus: Downregulation of MMP9 in human HL60 cells assessed as decrease in mRNA expression levels at 6 uM after 24 hrs by RT-PCR analysis. Type of experiment: functional, cell-based.
The subject of experiment [16] is HL-60. The experiment can be described thus: Downregulation of MMP2 in human HL60 cells assessed as decrease in mRNA expression levels at 6 uM after 24 hrs by RT-PCR analysis. Type of experiment: functional, cell-based.
Experiment [17] concerns HL-60. Nature of the experiment: Induction of cell death in human HL60 cells assessed as decrease in percentage of cells in subG1 phase at 2 times IC50 pretreated for 72 hrs followed by caspase-3 inhibitor Z-DEVD-FMK addition measured after 24 hrs by propidium iodide-staining based FACS analysis. It is filed as functional.
Experiment [18] relates to HL-60. Nature of the experiment: Downregulation of VEGFA in human HL60 cells assessed as decrease in mRNA expression levels at 6.5 uM after 24 hrs by RT-PCR analysis. Type of experiment: functional, cell-based.
Experiment [19] deals with HL-60. Nature of the experiment: Cytoprotective activity against H2O2-induced oxidative stress in human HL60 cells assessed as decrease in level of reactive oxygen species pretreated for 24 hrs at 6.25 uM followed by H2O2-stimulation for 30 mins by DCFH-DA staining-based FACS analysis. It is filed as functional, cell-based.
In experiment [20] the test system is EA.hy 926. Nature of the experiment: Antiangiogenic activity against human EAhy926 cells assessed as inhibition of capillary-like tube formation at 30 uM measured after 20 hrs by inverted phase contrast microscopic analysis. Type of experiment: functional, cell-based.
For experiment [21], the system named is HL-60. The experiment can be described thus: Cytoprotective activity against H2O2-induced oxidative stress in human HL60 cells assessed as decrease in level of reactive oxygen species pretreated for 24 hrs at 6.5 uM followed by H2O2-stimulation for 30 mins by DCFH-DA staining-based FACS analysis. Type of experiment: functional, cell-based.
Experiment [22] concerns HL-60. Nature of the experiment: Cytoprotective activity against H2O2-induced oxidative stress in human HL60 cells assessed as decrease in level of reactive oxygen species pretreated for 24 hrs at 6 uM followed by H2O2-stimulation for 30 mins by DCFH-DA staining-based FACS analysis. It is filed as functional, cell-based. (In general: A flow cytometer gives signals particle by particle.)

Experiment [23] relates to HL-60. The experiment can be described thus: Cell cycle arrest in human HL60 cells assessed as accumulation at subG1 phase at IC50 after 24 hrs by FACS analysis. Type of experiment: functional, cell-based.
Experiment [24] deals with HL-60. The experiment can be described thus: Cell cycle arrest in human HL60 cells assessed as accumulation at subG1 phase at 2 times IC50 after 24 hrs by FACS analysis. Type of experiment: functional, cell-based.

Calls of active or inactive are those of the source. The rule behind the calls is not given here.

As for `O=C(Nc1nnc(-c2cccc(O)c2O)s1)c1ccccc1`, the IC50 (commonly the point on the concentration scale where inhibition reaches its midpoint) in experiment [1] came out at 20.7 µM; in experiment [2], 22.3 µM; in [3], 12.3 µM; in experiment [4] it was 21.8 µM; in experiment [5] it was 23.2 µM.

As for `O=C(Nc1nnc(-c2ccc(O)c(O)c2)s1)c1ccccc1`, the IC50 in experiment [1] amounted to 17.6 µM; in [2] it was 23.4 µM; in experiment [3], 13 µM; in experiment [4], 23.3 µM; in experiment [5], 27.4 µM.

On to `O=C(Cc1ccccc1)Nc1nnc(-c2ccc(O)c(O)c2)s1`, for which the IC50 in [1] was found to be 12 µM; in [2] it was 21.3 µM; in [3], 15.4 µM; in experiment [4], 88.6 µM; in experiment [5], 30.7 µM.

Regarding `O=C(Nc1nnc(-c2ccc(O)c(O)c2)s1)C1CCCCC1`, the half-maximal inhibitory concentration (IC50) came to 8.8 µM in experiment [1]; 37.3 µM in experiment [2]; 16.3 µM in [3]; 34.5 µM in experiment [4]; 24 µM in [5].

In the case of `CC(=O)Nc1nnc(-c2cccc(O)c2O)s1`, the 50% inhibitory concentration (IC50) came to 49 µM in experiment [1]; 111 µM in [2]; 200 µM in [3]; 177 µM in experiment [4]; 156 µM in experiment [5].

Consider `CC(Cc1ccc(O)c(O)c1)C(C)Cc1ccc(O)c(O)c1` (stereo not given) [NORDIHYDROGUAIARETIC ACID], for which, in experiment [2], the half-maximal inhibitory concentration (IC50) was 20.8 µM.

Regarding `O=C1O[C@H]([C@@H](O)CO)C(O)=C1O` [ASCORBIC ACID], the 50% inhibitory concentration (IC50) in experiment [2] was found to be 38 µM.

For `O=C(Nc1nnc(-c2ccc(O)c(O)c2)s1)c1ccc(Cl)cc1`, the half-inhibitory concentration (IC50) was 14.7 µM in experiment [1]; 53 µM in experiment [2]; 14.6 µM in experiment [3]; 47.3 µM in [4]; 30.6 µM in [5].

As to `O=C(Nc1nnc(-c2cccc(O)c2O)s1)c1ccc(Cl)cc1`, the IC50 in [1] was determined as 9.6 µM; in experiment [2], 30.2 µM; in experiment [3] it was 9.5 µM; in experiment [4], 13 µM; in experiment [5], 18.7 µM. The result in experiment [6], in experiment [7], in experiment [8], in [9], in experiment [11] and in [12] was Active. In addition, the result in experiment [14], in [16], in experiment [17] and in [18] was Active. Also, the outcome in experiment [10], in experiment [13] and in [15] was inactive.

For the compound `Cc1ccc(C(=O)Nc2nnc(-c3cccc(O)c3O)s2)cc1`, the IC50 in experiment [1] amounted to 10.6 µM; in experiment [2] it was 27.1 µM; in experiment [3] it was 11.3 µM; in [4] it was 13.4 µM; in experiment [5] it was 33.2 µM. Besides, the outcome in experiment [6], in experiment [7], in experiment [8], in experiment [9], in experiment [11] and in [12] was Active. Also, the outcome in [14], in experiment [16], in experiment [17] and in experiment [18] was Active. Besides, the outcome in experiment [10], in experiment [13] and in [15] was inactive.

Consider `O=C(COc1ccccc1)Nc1nnc(-c2cccc(O)c2O)s1`, for which the outcome in experiment [19] was Active. Besides, the IC50 was found to be 11.2 µM in experiment [1]; 16.6 µM in [2]; 10.5 µM in experiment [3]; 117 µM in experiment [4]; 33.9 µM in experiment [5].

Take `O=C(Nc1nnc(-c2cccc(O)c2O)s1)C1CCCCC1`: the outcome in experiment [19] was Active. Besides, the IC50 in experiment [1] was determined as 7.9 µM; in experiment [2], 19.9 µM; in [3] it was 11 µM; in [4], 91.6 µM; in experiment [5], 70.3 µM.

For the compound `O=C(COc1ccccc1)Nc1nnc(-c2ccc(O)c(O)c2)s1`, the IC50 is 17.4 µM in experiment [1]; 36.1 µM in experiment [2]; 21.2 µM in experiment [3]; 51.3 µM in experiment [4]; 30.9 µM in experiment [5].

As for `O=C(Nc1nnc(-c2ccc(O)c(O)c2)s1)C12CC3CC(CC(C3)C1)C2`, the IC50 in [1] was determined as 7.4 µM; in experiment [2] it was 17.9 µM; in experiment [3] it was 13 µM; in [4], 16.1 µM; in experiment [5], 20.1 µM. Also, the result in experiment [7], in [8], in experiment [9], in experiment [11], in experiment [12] and in experiment [14] was Active. Besides, the outcome in [20], in [16], in [17], in [18] and in [21] was Active. The result in experiment [10], in experiment [13] and in experiment [15] was inactive.

On to `Cc1ccc(C(=O)Nc2nnc(-c3ccc(O)c(O)c3)s2)cc1`, for which the IC50 in experiment [1] stood at 10.5 µM; in experiment [2], 34 µM; in [3] it was 11.8 µM; in experiment [4] it was 67.1 µM; in [5], 27.1 µM.

Consider `CC(=O)Nc1nnc(-c2ccc(O)c(O)c2)s1`, for which the IC50 in experiment [1] is 42.5 µM; in experiment [2], 23.4 µM; in experiment [3] it was 133 µM; in experiment [4] it was 125 µM; in [5], 58.6 µM.

Turning to `O=C(Cc1ccccc1)Nc1nnc(-c2cccc(O)c2O)s1`, the IC50 in experiment [1] turned out to be 13.9 µM; in experiment [2], 20.9 µM; in experiment [3] it was 11.8 µM; in experiment [4], 120 µM; in experiment [5] it was 45.3 µM.

For the compound `O=C(Nc1nnc(-c2cccc(O)c2O)s1)C12CC3CC(CC(C3)C1)C2`, the IC50 in experiment [1] turned out to be 7.3 µM; in experiment [2], 14.2 µM; in experiment [3], 12.8 µM; in experiment [4] it was 21.4 µM; in experiment [5], 27.7 µM. Moreover, the result in experiment [7], in [8], in experiment [9], in [11], in experiment [22] and in experiment [12] was Active. Moreover, the outcome in [23], in [14], in [20], in [16], in [17] and in experiment [24] was Active. Moreover, the result in experiment [18] was Active. For the same compound, the outcome in experiment [10], in [13] and in experiment [15] was inactive.

For the origin of these results see ChEMBL document CHEMBL4052760, “Synthesis, antioxidant and antiproliferative activities of 1,3,4-thiadiazoles derived from phenolic acids” (Bioorg Med Chem Lett, 2017).
